According to ChEMBL document CHEMBL4715863, “Chemistry and Biology of Natural Azoxy Compounds” (J Nat Prod, 2020):
Converted amounts (≈) assume the structure as drawn.

What was measured:
Escherichia coli = experiment: Antibacterial activity against Escherichia coli BE1121 by paper disc-agar diffusion method; assay type: functional
KB = experiment: Cytotoxicity against human KB cells; assay type: functional, cell-based

MIC (Escherichia coli) [µg/mL]	SMILES	IC50 (KB) [nM]
0.078 (≈ 0.453 µM)	C=C(/N=[N+](\[O-])CC(C)C)C(=O)O	
	[O-]/[N+](CCCCCCCCCC/C=C\CCc1cccnc1)=N\CCCCCCCCCC/C=C\CCc1cccnc1	1700
